Values quoted from earlier work in publication PMC7958448, “Bepridil is potent against SARS-CoV-2 in vitro” (Proceedings of the National Academy of Sciences of the …, 2021).

Tested on: SARS-CoV-2 in Vero E6 cells
Details: cited from earlier work

CCC(CC)COC(=O)[C@H](C)N[P@](=O)(OC[C@H]1O[C@@](C#N)(c2ccc3c(N)ncnn23)[C@H](O)[C@@H]1O)Oc1ccccc1 [remdesivir]
EC50: 0.77 µM
